Data set [1] relates to Folsomia candida. As to conditions: chronic/long-term; reproduction.
The subject of data set [2] is Tagia sp.
The subject of data set [3] is Apis mellifera. As to conditions: acute, mortality.
The subject of data set [4] is Canidae. The settings on record: chronic, duration: 1 years, oral, Dog Other.
In data set [5] the test system is Danio rerio. As to conditions: acute; duration: 96 hours; mortality.
Data set [6] has as its system Daphnia magna.
For data set [7], the system named is Landoltia sp. As to conditions: acute.
Data set [8] relates to Oncorhynchus mykiss. The settings on record: chronic/long-term; duration: 28 days.
The test system of data set [9] is Rattus norvegicus.
Data set [10] has as its system Aphidius rhopalosiphi. In words: LR50; higher = less toxic. As to conditions: not reported; mortality.
In data set [11] the test system is Typhlodromus pyri. Description: LR50; higher = less toxic. The settings on record: not reported; mortality.

Converted amounts (≈) assume the structure as drawn. A value given as a limit tells only on which side of the number the result lay.

These results are taken from EPA's ToxValDB 9.5 (doi:10.2903/j.efsa.2010.1769).

In the case of `CCc1cccc(C)c1N(COC(C)C)C(=O)C(=O)O`, the NOEC in [1] is over 1000 mg/kg.

Take `CCc1cccc(C)c1NC(=O)CS(=O)(=O)O` [2-(2-ethyl-6-methylanilino)-2-oxoethane-1-sulfonic acid]: the NOEC in [1] is over 1000 mg/kg; in data set [2] (chronic/long-term, duration: 56 days), 3.5 mg/kg.

For the compound `CCc1cccc(C)c1N(COC(C)C)C(=O)CCl` [Propisochlor], the LD50 in [3] (dermal) was over 100 µg/piece; in data set [3] (oral, unspecified), over 111 µg/piece; in data set [9] (acute, oral, mortality), 1920 mg/kg. Besides, the NOAEL in [4] came out at 5 mg/kg-day; in data set [9] (reproduction developmental, reproduction), 10 mg/kg-day. In addition, the LOAEL in data set [4] (clinical signs) worked out at 5 mg/kg-day. For the same compound, the LC50 worked out at 0.93 µg/mL (≈ 3.28 µM) in data set [5]; 4.46 µg/mL (≈ 15.7 µM) in data set [6] (acute, duration: 96 hours, mortality); 248 mg/kg in [2] (acute, mortality). Also, the NOEC in [6] (chronic/long-term, duration: 21 days) came out at 0.93 mg/L; in data set [7], 21 µg/L; in data set [8], 0.18 mg/L; in data set [2] (acute), 62.5 mg/kg. Moreover, the results for the LR50 in data set [10] and in [11] were 20300 g/ha and 1500 g/ha, respectively.

As usually defined, the NOAEL is the highest tested level that showed no adverse finding. Broadly, the LOAEL is the lowest dose or exposure tested at which an adverse effect was seen.
